Key:
[1] = cited from earlier work
OATP1B1 [2] = target: T1, OATP1B1 (Homo sapiens, UniProt Q9Y6L6); assay: Concentration-dependent inhibition of OATP1B1-mediated atorvastatin uptake; format: cell-based
T1 sequence (Q9Y6L6 1-691): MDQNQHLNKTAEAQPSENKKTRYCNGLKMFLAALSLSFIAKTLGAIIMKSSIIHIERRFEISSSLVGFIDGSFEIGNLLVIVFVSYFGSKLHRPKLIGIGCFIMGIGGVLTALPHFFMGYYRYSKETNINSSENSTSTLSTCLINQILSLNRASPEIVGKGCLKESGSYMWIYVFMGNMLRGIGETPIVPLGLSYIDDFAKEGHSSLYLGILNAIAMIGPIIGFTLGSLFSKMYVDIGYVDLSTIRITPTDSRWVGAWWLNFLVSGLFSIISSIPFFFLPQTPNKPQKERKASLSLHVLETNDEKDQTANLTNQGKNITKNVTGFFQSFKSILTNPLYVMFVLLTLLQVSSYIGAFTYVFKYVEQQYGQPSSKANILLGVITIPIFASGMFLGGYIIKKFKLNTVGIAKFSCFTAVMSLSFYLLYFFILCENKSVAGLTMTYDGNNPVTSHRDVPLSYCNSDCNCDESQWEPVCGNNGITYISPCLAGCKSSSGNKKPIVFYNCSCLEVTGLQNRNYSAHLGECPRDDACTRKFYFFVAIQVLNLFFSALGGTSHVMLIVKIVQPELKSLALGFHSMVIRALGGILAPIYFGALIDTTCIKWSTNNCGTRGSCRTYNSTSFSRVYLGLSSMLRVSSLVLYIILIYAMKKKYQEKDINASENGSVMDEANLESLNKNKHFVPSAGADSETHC

[3] = clinical co-administration with the inhibitor; ref [37],[27],[43],[51],[46]; cited from earlier work
[4] = ref [3],[23],[24]; cited from earlier work
OATP1B1 [5] = target: T1, OATP1B1; assay: Calculation of R-values

Cc1ccc(C)c(OCCCC(C)(C)C(=O)O)c1 [Gemfibrozil]
Imax, maximum systemic plasma concentration of the inhibitor ([1]; amprenavir recalculated from fosamprenavir data, ref [23]–[28]): 99.9 µM
Fa, fraction of the inhibitor dose absorbed (maximum oral bioavailability) ([1]; ref [23]–[25]): 0.98
IC50 (OATP1B1 [2]): 156 µM
Ki (OATP1B1 [2]): 68.1 µM
Fold AUC change Atorvastatin [3]: 1.2 fold
Fu, fraction of the inhibitor that is unbound [4]: 0.05
R-value B (OATP1B1 [5]; Eq. 2 (IC50), ka = 0.03, Fa = 1, International Transporter Consortium method): 1.05
R-value D (OATP1B1 [5]; Eq. 2 (IC50), ka = 0.1, Fa = 1): 1.08
R-value C (OATP1B1 [5]; Eq. 2 (IC50), ka = 0.1, Fa published value (lopinavir Fa = 1)): 1.08
R-value F (OATP1B1 [5]; Eq. 3 (Ki), ka = 0.03, Fa = 1): 1.11
R-value E (OATP1B1 [5]; Eq. 3 (Ki), ka = 0.03, Fa published value (lopinavir Fa = 1)): 1.11
R-value H (OATP1B1 [5]; Eq. 3 (Ki), ka = 0.1, Fa = 1, Hirano et al. method): 1.19
R-value G (OATP1B1 [5]; Eq. 3 (Ki), ka = 0.1, Fa published value (lopinavir Fa = 1)): 1.19
Range of the eight R-values A–H (OATP1B1 [5]; all eight calculation variants): 1.05–1.19
Average (mean) R-value (OATP1B1 [5]; mean of the eight R-values A–H): 1.11

Source: paper PMC3264873 (Pharmaceutical Research, 2011)
